# US5783599A, “Methods of treating cancer and viral infections with 5-iodo-6-amino-and 5-iodo-6-nitroso-1 2-benzopyrones” (priority 1996, dated 1998)
# “Also recorded” adds a separate entry of the source. Where two headings read alike, the source gives them in different places.
# Tests used:
# [1] = target: T1, ADPRT (Bos taurus, UniProt P18493); conditions: literature; cited from earlier work
# [2] = literature; cited from earlier work
# [3] = tested on: 14C cells; test: DNA synthesis ([3H]deoxyadenosine incorporation) in 14C cells; assay type: cell-based; conditions: Rattus norvegicus, 72 h, N=5, read-out: % Inhibition of DNA synthesis
# Description: (§1) In this study, the following cell lines were used. Cell line CG I, a non-tumorigenic hybrid of HeLa cells with normal human fibroblasts, and its is tumorigenic revertant counterpart, CG1 III, as described in Science, 215:252 (1982). These cells were obtained from UC Irvine. […] HEp-2 human epidermoid carcinoma cells were provided by Dr. L. Aurelian (University of Maryland). E-Ras cells were-obtained from University of Cincinnati and represent an endothelial cell line transfected with pSV2neo plasmid as described in Proc. Natl. Acad. Sci., 76:1373 (1979). This cell line contains several copies of the activated human Ha-ras oncogene.
# (§2) Cells were seeded to 2 cm^2 wells of Falcon tissue culture plates at a density of 6000±650 cells per well. Inhibitors were added to the seeding suspensions from stock solutions of 100 mM 6-ABP in water or 50 mM 5-1-6-ABP in dimethylsulfoxide (DMSO). […] Growth media were Dulbeccos MEM (lines #1 and 2), and Dulbeccols Modified Eagle's Medium, containing 10% fetal bovine serum and penicillin (100 μg/ml) plus streptomycin (100 μg/ml). […] Cells were then lysed in 500 μl of 0.06M NaOH and the acid precipitable radioactivity was determined.
# [4] = tested on: HIV; test: Inhibition of syncytia formation by HIV in MT-2 cells; assay type: cell-based
# [5] = tested on: CG1 I cells; test: DNA synthesis ([3H]deoxyadenosine incorporation) in CG1 I cells; assay type: cell-based; conditions: Homo sapiens, 72 h, N=5
# Description: as §1, §2
# [6] = tested on: human lymphoblasts; test: Lymphoblast viability; assay type: cell-based
# Protocol: The viability of lymphoblasts is measured by incubating the cells exposed to IL-2, HIV and to 6-ABP with H3-thymidine for 6 hours on the sixth day of culture and determining the amount of cpm incorporated per 100,000 cells placed in culture.
# [7] = tested on: AA-2 or MT-2 cells; test: Cell count and viability of AA-2 and MT-2 cells; assay type: cell-based, human; conditions: for effect on cell proliferation: 0.1 mM 5-I-6-ABP
# Protocol: The effects of 5-I-6-ABP treatment of AA-2 and MT-2 cells was directly analyzed by cell count and viability tests including cloning efficiency and trypan blue uptake. The AA2 or MT-2 cell culture having initial cell count per well 0.5×10^5 was submitted to treatment with 3 mM of 6-ABP and or with 0.1 mM of 5-I-6-ABP and compared to untreated cell culture. The cells were counted 4 days after the treatment with 5-I-6-ABP and 6-ABP.
# [8] = tested on: HEp-2 cells; test: DNA synthesis ([3H]deoxyadenosine incorporation) in HEp-2 cells; assay type: cell-based; conditions: Homo sapiens, 72 h, N=5, read-out: % Inhibition of DNA synthesis
# Description: as §1, §2
# [9] = tested on: Rat-1 cells; test: DNA synthesis ([3H]deoxyadenosine incorporation) in Rat-1 cells; assay type: cell-based; conditions: 72 h, N=5
# Description: as §1, §2
# [10] = target: T1, ADPRT; test: Inhibition of ADPRT / binding to ADPRT (I50, Ki); assay type: biochemical
# Description: Their biological action spectrum is nearly the same as that of 6-ABP, except that their potency is about 10-50 times greater. Such potency is particularly well documented in case of 5-I-6-ABP against malignant cell proliferation in cell cultures. […] This effectivity is 10-20 times higher than 6-ABP.
# The 6-amino group of 5-I-6-ABP is rapidly oxidized intracellularly to 5-I-6-NOBP which, by binding to the Zn^2+ -finger domain of ADPRT, destabilizes the tightly chelated Zn^2+ by the oxidation of the thiol groups in the Zn^2+ finger polypeptide, thus ejecting Zn^2+. In this way, 5-I-6-ABP effectively inactivates the ADPR-forming activity of this protein and converts it to a DNA binding protein that reacts with "internal domains" of certain double stranded DNA (Biochemistry, 28:5670 (1989); Biochem. Biophys. Res. Commun., 167:842 (1990)). These DNA domains include abnormally replicating DNA structures in tumorigenic or proliferative cells and in viral DNAs, probably at the integration sites.
# [11] = tested on: malignant cell proliferation; test: Malignant cell proliferation / cytostatic activity in cell cultures, overall; assay type: cell-based
# Description: as §1
# Cells were seeded to 2 cm^2 wells of Falcon tissue culture plates at a density of 6000±650 cells per well. Inhibitors were added to the seeding suspensions from stock solutions of 100 mM 6-ABP in water or 50 mM 5-1-6-ABP in dimethylsulfoxide (DMSO). […] Growth media were Dulbeccos MEM (lines #1 and 2), and Dulbeccols Modified Eagle's Medium, containing 10% fetal bovine serum and penicillin (100 μg/ml) plus streptomycin (100 μg/ml). After incubation for 72 hours at 37° C. in a 5% CO2 humidified atmosphere, incorporation of [^3 H] deoxyadenosine (ICN, 18 Ci/mmol) into DNA was tested as follows: [^3 H] deoxyadenosine (450,000 dpm in 40 μl) of medium was added per well (each containing 600 μl of medium) and incubation at 37° C. was continued for 1 hour, followed by removal of the medium and rinsing of the wells 3 times with phosphate-buffered saline. Cells were then lysed in 500 μl of 0.06M NaOH and the acid precipitable radioactivity was determined.
# [12] = tested on: GC1 III cells; test: DNA synthesis ([3H]deoxyadenosine incorporation) in CG1 III cells; assay type: cell-based; conditions: Homo sapiens, 72 h, N=5
# Description: as §1, §2
# [13] = tested on: E-Ras cells; test: DNA synthesis ([3H]deoxyadenosine incorporation) in E-Ras cells; assay type: cell-based; conditions: 72 h, N=5
# Description: as §1, §2
# [14] = Metabolic conversion in liver / intracellular oxidation and cell penetration
# [15] = tested on: HIV; test: HIV replication by p24 formation (ELISA) in cell culture; assay type: cell-based
# [16] = tested on: HIV; test: Cytopathogenic effect of HIV on AA-2 cells; assay type: cell-based
# [17] = Solubility; assay type: physicochemical; conditions: 25° C.
# Description: The color of the compound in the solid state depends on particle size. Large crystals are a very deep brown, small crystals, a medium brown, and when pulverized, the material in all cases is orange-colored.
# [18] = Toxicity after intraperitoneal administration; assay type: in vivo, rat
# Protocol: Toxicological tests administering 5-I-6-ABP to mice were performed under the following conditions.
# […] […] […] In in vitro experiments, it was shown that at the concentration 100 mg/kg corresponding to 0.35 mM, the antiviral effect is maximal.
# [19] = Passage of blood brain barrier; conditions: in vivo
# [20] = tested on: HIV; test: HIV proliferation in human lymphoblasts; assay type: cell-based
# Description: The HIV isolates used in these experiments are isolated from the blood of infected patients. After isolation, HIV infection is established in CEM cells, and these infected cells are used to produce a stock of HIV virus that is titered to measure the concentration of tissue culture infective doses (TCID).
# The cells are placed in culture in medium containing IL-2, but in the absence of additional 5-I-6-ABP, and monitored at 6 days and 12 days for the production of HIV-p24 core antigen, or for measurements of particulate reverse transcriptase.
# HIV p24 antigen is measured by ELISA, with a cutoff of 5 pgm/ml. Particulate reverse transcriptase is measured by centrifuging down free virus from tissue culture fluids, lysing HIV in a buffer containing detergent, magnesium, H3-labelled dTTP and poly rA.oligo dT primer, incubating for 1 hour, and measuring precipitable radioactivity, and is expressed as cpm per volume of HIV-containing medium.
# [21] = Stability in solution; assay type: physicochemical
# Description: 5-I-6-ABP, is a reasonably soluble molecule. It can form approximately 0. […] Such solution would be reasonably stable for use as an intravenous infusion formulation. The parenteral route of administration seems to be the most likely effective mode of administration against cancer or HIV infections at any stage of the disease. […] 5-I-6-ABP is most probably also effective for treatment of AIDS related Kaposi's sarcoma of inner organs. Properly formulated, it will also effect skin disorders. The color of the compound in the solid state depends on particle size. Large crystals are a very deep brown, small crystals, a medium brown, and when pulverized, the material in all cases is orange-colored.
# [22] = tested on: HIV; test: Anti-HIV activity, overall comparison with 6-ABP; assay type: cell-based
# [23] = tested on: CMV; test: CMV replication in infected cell culture; assay type: cell-based
# [24] = General toxicity
# [25] = tested on: HSV; test: HSV replication in infected cell culture; assay type: cell-based
# Protocol: Herpes simplex virus (HSV) type 1 and 2 (F and G strains, respectively) were grown in HEp-2 cells and titered by plaque assay under liquid overlay as described in Proc. Natl. Acad. Sci., 83:2787 (1986). Virus titers for CMV are expressed as the highest dilution that causes 50% cytopathic effect (TCID50). Virus titers for HSV-1 and HSV-2 are expressed as […] per ml. HIV titers are expressed as syncytial forming units (SFU per ml), assayed on MT2 cells. Vero, HEp-2 or MRC-5 cells are exposed to various concentrations from 0.1 to 10 mM of 5-I-6-ABP in various time intervals before infecting them with HSV-1 or HSV-2 (5-10 PFU/cell). Virus titers are determined 24 hours later.
# [26] = tested on: other enzymes; test: Specificity towards other enzymes
# [27] = tested on: HIV; test: Cytopathogenic effect of HIV on MT-2 cells; assay type: cell-based
# [28] = tested on: virus; test: Antiviral effect in in vitro experiments at 0.35 mM; assay type: cell-based; conditions: 100 mg/kg corresponding to 0.35 mM
# T1 sequence (P18493 whole entry): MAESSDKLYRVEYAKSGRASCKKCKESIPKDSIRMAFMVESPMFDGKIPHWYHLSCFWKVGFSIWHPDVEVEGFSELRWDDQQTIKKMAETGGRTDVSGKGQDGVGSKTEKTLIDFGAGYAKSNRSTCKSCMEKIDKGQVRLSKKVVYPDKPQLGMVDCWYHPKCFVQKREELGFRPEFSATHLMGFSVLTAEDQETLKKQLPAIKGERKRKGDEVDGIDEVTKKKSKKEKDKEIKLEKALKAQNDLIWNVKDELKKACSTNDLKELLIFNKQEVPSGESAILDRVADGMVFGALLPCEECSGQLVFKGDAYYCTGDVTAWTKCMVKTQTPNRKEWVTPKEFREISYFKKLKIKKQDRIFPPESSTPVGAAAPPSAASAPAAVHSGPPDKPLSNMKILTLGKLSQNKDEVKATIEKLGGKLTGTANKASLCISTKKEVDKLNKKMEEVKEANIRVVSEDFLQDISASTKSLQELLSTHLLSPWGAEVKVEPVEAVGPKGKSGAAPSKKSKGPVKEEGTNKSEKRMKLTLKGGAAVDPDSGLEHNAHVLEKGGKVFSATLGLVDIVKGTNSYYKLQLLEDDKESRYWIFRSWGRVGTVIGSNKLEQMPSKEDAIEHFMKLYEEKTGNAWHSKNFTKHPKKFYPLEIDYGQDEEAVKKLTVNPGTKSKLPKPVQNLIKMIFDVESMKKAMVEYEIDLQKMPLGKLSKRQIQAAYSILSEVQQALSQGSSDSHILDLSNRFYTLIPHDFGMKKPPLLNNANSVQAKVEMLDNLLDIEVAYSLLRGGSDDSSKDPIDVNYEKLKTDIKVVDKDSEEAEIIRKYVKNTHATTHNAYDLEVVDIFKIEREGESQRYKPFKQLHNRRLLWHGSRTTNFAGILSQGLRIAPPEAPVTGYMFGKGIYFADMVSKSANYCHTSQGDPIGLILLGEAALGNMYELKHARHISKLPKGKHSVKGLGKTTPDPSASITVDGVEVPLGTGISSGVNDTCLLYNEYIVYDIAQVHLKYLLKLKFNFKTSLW
smiles,measurement,setting,value
"Nc1ccc2oc(=O)ccc2c1 [6-ABP, 6-amino-1,2-benzopyrone, reference compound]",ADPRT ligand,[1],specifically bind to ADPRT
same,"sedative, hypnotic, hypothermal, antipyretic, hypotensive, adrenolytic action",[2],No significant action
same,percent change in DNA synthesis versus control at 500 µM,[3]; 6-ABP 0.5 mM,-53.3%
same,inhibition of syncytia formation,[4],complete
same,inhibition at 500 µM,[5]; 6-ABP 0.5 mM,-19.8%
same,cell damage or death,[6],without detectable cell damage or death
same,cytotoxicity,[7],does not involve cytotoxicity
same,effect on cell proliferation,"[7]; 3 mM 6-ABP, 4 days",inhibitory effect on cell proliferation
same,toxic effects in viability test,"[7]; 3 mM 6-ABP, 4 days",no evidence of toxic effects
same,percent change in DNA synthesis vs control at 500 µM,[8]; 6-ABP 0.5 mM,-47.6%
same,inhibition at 500 µM,[9]; 6-ABP 0.5 mM,-30.5%
same,IC50,[10],125 µM
same,Ki,[10],47 µM
same,effectivity of 500 μM 6-ABP compared with 5-I-6-ABP,"[11]; 500 μM 6-ABP vs 50 μM 5-I-6-ABP, vs 500 μM as printed",the same effectivity
same,inhibition at 500 µM,[12]; 6-ABP 0.5 mM,-37.5%
same,inhibition at 500 µM,[13]; 6-ABP 0.5 mM,-69.5%
"O=c1ccc2c(I)c([N+](=O)[O-])ccc2o1 [5-I-6-nitro-NBP, 5-iodo-6-nitro-1,2-benzopyrone]",biochemical activity,[14]; nitro oxidation product formed in liver,inactive
"Nc1ccc2oc(=O)ccc2c1I [5-I-6-ABP, 5-iodo-6-amino-1,2-benzopyrone]","p24 protein formation, effect relative to 3 mM 6-ABP",[15],nearly as effective
same,suppressing effect on p24 generation,[15],almost equivalent suppressing effect on p24 generation
same,"cytopathogenic effect of HIV, effectiveness relative to 6-ABP",[16],nearly as effective
same,percent change in DNA synthesis versus control at 50 µM,[3]; 5-I-6-ABP 0.05 mM,-69.2%
same,solubility,"[17]; water, read-out: solubility in water (saturated)",0.37 mM
same,solubility,"[17]; organic solvent or mixture, DMSO, read-out: solubility in DMSO (saturated)",1900 mM
same,solubility,"[17]; organic solvent or mixture, ethanol, read-out: solubility in ethanol (saturated)",4.7 mM
same,inhibition of syncytia formation,[4],complete
same,inhibition of syncytia formation relative to 3 mM 6-ABP,[4],only slightly less inhibitory
same,inhibition at 50 µM,[5]; 5-I-6-ABP 0.05 mM,-7.6%
same,"toxic effects, chronic","[18]; chronic administration, 100 and 500 mg/kg, several weeks",did not show any toxic effects
same,"toxic effects, subacute","[18]; rats, i.p., 100 and 59 mg/kg in DMSO once a day, four days",no apparent toxic effects
same,blood brain barrier passage,[19],appears to cross the blood brain barrier
same,"inhibition of HIV, duration",[20],temporary and reversible
same,cytotoxicity,[7],does not involve cytotoxicity
same,effect on cell proliferation,"[7]; 3 mM 6-ABP, 4 days",inhibitory effect on cell proliferation
same,cell penetration,"[14]; most mammalian cells, pH 7.2-7.4",to a limited degree
same,intracellular oxidation at 6-amino position,[14]; to 5-I-6-NOBP,rapid oxidation
same,metabolic conversion in the liver,"[14]; to 5-I-6-nitroBP, per os",rapid conversion in the liver
same,percent change in DNA synthesis vs control at 50 µM,[8]; 5-I-6-ABP 0.05 mM,-52.4%
same,"stability in water, ethanol and DMSO",[21]; 25° C.,stable in all of these solvents
same,stability of aqueous solution,"[21]; about 0.4 mM in water, pH 7.2-7.9, room temperature",stable for months at room temperature
same,stability with respect to boiling water,[21]; boiling water,stable with respect to boiling water
same,degraded,"[21]; water, kept in the dark, months at room temperature, read-out: decomposition in aqueous solution",< 0.1%
same,inhibition at 50 µM,[9]; 5-I-6-ABP 0.05 mM,-35.6%
same,anti-HIV activity,[22],"specific, potent and non-toxic inhibitor; also recorded: highly effective against HIV"
same,effectivity against HIV relative to 6-ABP,[22],10-20 times
same,"inhibition of HIV replication, reversibility",[22],"temporary, reversible"
same,IC50,[10],19 µM
same,Ki,[10],2 µM
same,inhibition of / binding to ADPRT,[10],potent inhibitor of ADPRT; also recorded: much tighter binding
same,times more potent than 6-ABP (on a concentration basis),[10]; vs non-iodinated 6-ABP,about 10 times
same,CMV inhibition,[23],"specific, potent and non-toxic inhibitor; also recorded: effectively inhibits CMV growth"
same,toxicity,[24],completely nontoxic; also recorded: absence of toxicity
same,HSV inhibition,[25],"specific, potent and non-toxic inhibitor"
same,effect of cell type on inhibitory effect,"[25]; Vero, HEp-2 or MRC-5 cells, 0.1 to 10 mM",not affected by cell type
same,activation or inhibition of other enzymes,[26],no other enzymes are activated or inhibited
same,cellular toxicity of cytostatic effect,[11],do not involve cellular toxicity
same,replication of tumorigenic cell types,"[11]; 6 cell lines, Table 1",profoundly inhibited
same,potency relative to 6-ABP,"[11]; biological action spectrum, vs 6-ABP",10-50 times
same,antitumor activity relative to 6-ABP,[11]; vs 6-ABP,at least 10 times
same,inhibition at 50 µM,[12]; 5-I-6-ABP 0.05 mM,-64.4%
same,"cytopathogenic effect of HIV, effectiveness relative to 6-ABP",[27],nearly as effective
same,inhibition at 50 µM,[13]; 5-I-6-ABP 0.05 mM,-81.8%
same,antiviral effect,[28],maximal
